From publication PMC6539479
“Also recorded” adds a separate entry of the source. Read-outs that look alike come from different tables or passages of the source.

What was measured:
human TASK-3 channels [1] = conditions: cited from earlier work
TASK-1 = system: TASK-1; parameters: method as in PMID 30803485; conditions: cited from earlier work
human TASK-3 channels [2] = assay: IonWorks Quattro electrophysiology assay, HEK293 (Coburn et al.); conditions: TASK-3, from reported IC50
[3] = Table S2, TASK-3, ref 16 (supplement ref 1)
[4] = Table S3 reported activity, TASK-3
[5] = Table 1, Figure 4B and text, TASK-3

CCOC(=O)C1CCN(c2ncnc3c2CN(C(=O)c2ccc(-c4ccccc4)cc2)CC3)CC1 [Compound 12f]
IC50 (human TASK-3 channels [1]; [3]): 74 ± 9 nM

CCC(=O)C1CCN(c2ncnc3c2CN(C(=O)c2ccc(-c4ccccc4)cc2)CC3)CC1 [Compound 24]
IC50 (human TASK-3 channels [1]; [3]): 80 ± 9 nM
IC50 (human TASK-3 channels [1]; [4]): 80 nM

CCOC(=O)C1CCN(c2ncnc3c2CN(C(=O)c2ccc(C)cc2)CC3)CC1 [Compound 12d]
IC50 (human TASK-3 channels [1]; [3]): 310 ± 80 nM

COC1CCN(c2ncnc3c2CN(C(=O)c2ccc(-c4ccccc4)cc2)CC3)CC1 [Compound 19]
IC50 (human TASK-3 channels [1]; [3]): 135 ± 37 nM
IC50 (human TASK-3 channels [1]; [4]): 135 nM

CS(=O)(=O)C1CCN(c2ncnc3c2CN(C(=O)c2ccc(-c4ccccc4)cc2)CC3)CC1 [Compound 18]
IC50 (human TASK-3 channels [1]; [3]): 82 ± 5 nM
IC50 (human TASK-3 channels [1]; [4]): 82 nM

CCOC(=O)C1CCN(c2ncnc3c2CN(S(=O)(=O)Cc2ccccc2)CC3)CC1 [Compound 11a]
IC50 (human TASK-3 channels [1]; [3]): 3600 ± 400 nM

CCOC(=O)C1CCN(c2ncnc3c2CN(S(=O)(=O)c2ccc(Cl)cc2)CC3)CC1 [Compound 11b]
IC50 (human TASK-3 channels [1]; [3]): 3900 ± 500 nM

CCOC(=O)C1CCN(c2ncnc3c2CN(C(=O)Nc2ccc(-c4ccccc4)cc2)CC3)CC1 [Compound 10c]
IC50 (human TASK-3 channels [1]; [3]): 9600 ± 500 nM

CCOC(=O)C1CCN(c2ncnc3c2CN(Cc2ccccc2)CC3)CC1 [Compound 9c]
IC50 (human TASK-3 channels [1]; [3]): 710 ± 80 nM

CCOC(=O)C1CCN(c2ncnc3c2CN(S(=O)(=O)c2ccccc2Cl)CC3)CC1 [Compound 11d]
IC50 (human TASK-3 channels [1]; [3]): 900 ± 100 nM

CCOC(=O)C1CCN(c2ncnc3c2CN(C(=O)c2ccccc2)CC3)CC1 [Compound 12a]
IC50 (human TASK-3 channels [1]; [3]): 3600 ± 770 nM

O=C(c1ccc(-c2ccccc2)cc1)N1CCc2ncnc(N3CC[C@H]4OCCC[C@@H]4C3)c2C1 [Compound 20b]
IC50 (human TASK-3 channels [1]; TASK-3): 70 nM
IC50 (human TASK-3 channels [1]; [5]): 70 nM
IC50 (human TASK-3 channels [1]; [3]): 70 ± 7 nM
IC50 (human TASK-3 channels [1]; [4]): 70 nM

CCOC(=O)C1CCN(c2ncnc3c2CN(C(=O)c2ccc(OC)cc2)CC3)CC1 [Compound 12b]
IC50 (human TASK-3 channels [1]; [3]): 1600 ± 180 nM

CCOC(=O)C1CCN(c2ncnc3c2CN(S(=O)(=O)c2cccc(Cl)c2)CC3)CC1 [Compound 11c]
IC50 (human TASK-3 channels [1]; [3]): 700 ± 70 nM

CCc1noc(C2CCN(c3ncnc4c3CN(C(=O)c3ccc(-c5ccccc5)cc3)CC4)CC2)n1 [Compound 22]
IC50 (human TASK-3 channels [1]; TASK-3): 70 nM
IC50 (human TASK-3 channels [1]; [5]): 70 nM
IC50 (human TASK-3 channels [1]; [3]): 70 ± 10 nM
IC50 (human TASK-3 channels [1]; [4]): 70 nM

CCOC(=O)C1CCN(c2ncnc3c2CN(C(=O)c2ccc(Br)cc2)CC3)CC1 [Compound 12c]
IC50 (human TASK-3 channels [1]; [3]): 430 ± 60 nM

CCCC(=O)C1CCN(c2ncnc3c2CN(C(=O)c2ccc(-c4ccccc4)cc2)CC3)CC1 [PK-THPP]
potency on TASK-1 relative to TASK-3 (TASK-1): almost nine-times less potency; also recorded: almost nine-fold less potency

O=C(c1ccc(-c2ccccc2)cc1)N1CCc2ncnc(N3CCOCC3)c2C1 [Compound 17d]
IC50 (human TASK-3 channels [1]; [3]): 4600 ± 1100 nM

CCOC(=O)C1CCN(c2ncnc3c2CN(C(=O)NCc2ccccc2)CC3)CC1 [Compound 10b]
IC50 (human TASK-3 channels [1]; [3]): 3400 ± 400 nM

CCOC(=O)C1CCN(c2ncnc3c2CN(C(=O)c2ccc(C4CCCCC4)cc2)CC3)CC1 [Compound 12e]
IC50 (human TASK-3 channels [1]; [3]): 120 ± 10 nM

CCOC(=O)C1CCN(c2ncnc3c2CN(C(=O)c2ccc(-c4ccccc4)cc2)CC3(C)C)CC1 [Compound 13a]
IC50 (human TASK-3 channels [1]; [3]): 570 ± 30 nM

O=C(c1ccc(-c2ccccc2)cc1)N1CCc2ncnc(N3CCCCC3)c2C1 [Compound 17c]
IC50 (human TASK-3 channels [1]; [3]): 4000 ± 1100 nM

CCOC(=O)C1CCN(c2ncnc3c2CN(C(=O)c2ccc(-c4ccccc4)cc2)C(C)(C)C3)CC1 [Compound 13b]
IC50 (human TASK-3 channels [1]; [3]): 650 ± 30 nM

CC(C)(O)C1CCN(c2ncnc3c2CN(C(=O)c2ccc(-c4ccccc4)cc2)CC3)CC1 [Compound 21]
IC50 (human TASK-3 channels [1]; TASK-3): 50 nM
IC50 (human TASK-3 channels [1]; [5]): 50 nM
IC50 (human TASK-3 channels [1]; [3]): 50 ± 6 nM
IC50 (human TASK-3 channels [1]; [4]): 50 nM

CCOC(=O)C1CCN(c2nc(C)nc3c2CN(C(=O)c2ccc(-c4ccccc4)cc2)CC3)CC1 [Compound 14b]
IC50 (human TASK-3 channels [1]; [3]): 260 ± 50 nM

O=C(c1ccc(-c2ccccc2)cc1)N1CCc2ncnc(N3CCCC3)c2C1 [Compound 17b]
IC50 (human TASK-3 channels [1]; [5]): 27000 nM
inhibiting TASK-3 channels (human TASK-3 channels [1]; potency range in words): micromolar range
fold lower affinity than PK-THPP (human TASK-3 channels [2]): ~1000 fold

O=C(c1ccc(-c2ccccc2)cc1)N1CCc2ncnc(N3CCS(=O)(=O)CC3)c2C1 [Compound 17e]
IC50 (human TASK-3 channels [1]; [3]): 570 ± 60 nM
IC50 (human TASK-3 channels [1]; [4]): 570 nM
